Patent publication US10231980B2, “Cortexolone 17alpha-benzoate for use in the treatment of tumours” (COSMO TECHNOLOGIES LTD., priority 2014, dated 2019)
Read-outs that look alike come from different tables or passages of the source.

What was measured:
[1] = test system: LNCaP; test: ATP-dependent cell viability assay (Cell Titer Glo), Example 12; conditions: LNCaP; for Therapeutic Index = IC50 stimulated PBMC/IC50 cancer cell: Table VII
Source text: (§1) Data shown in Table I were fitted through sigmoidal dose response curves and analyzed using Prizm statistical.

[2] = test system: MiaPaca2; test: as above; conditions: for Therapeutic Index = IC50 stimulated PBMC/IC50 cancer cell: Table VII
Source text: as §1

[3] = test system: PC3; test: as above; conditions: for Therapeutic Index = IC50 stimulated PBMC/IC50 cancer cell: Table VII
Source text: as §1

[4] = test system: Panc1; test: as above; conditions: for Therapeutic Index = IC50 stimulated PBMC/IC50 cancer cell: Table VII
Source text: as §1

[5] = test system: MiaPaca-2 pancreatic tumor xenograft; test: Human pancreatic tumor xenograft in nude mice; assay type: in vivo; conditions: for in vivo antitumor activity compared with Cyproterone Acetate: Examples 5 and 6
Experimental: Cortexolone 17α-benzoate and Cyproterone Acetate were separately diluted in DMSO/2-hydroxypropyl β-cyclodextrin (vehicle).
The test was carried out comparing the anti-tumor activity of cortexolone 17α-benzoate at two different dosages (8.0 mg/kg, corresponding approximately at 230 μM, and 40 mg/kg, corresponding approximately at 1150 μM), versus the vehicle (i.e. 0.4% (v/v) tween 80 and 0.5% (w/v) carboxymethylcellulose in normal saline) and versus the comparator Cyproterone Acetate at two different dosages (7.4 mg/kg and 37 mg/kg).
1×10^6 MiaPaca-2 cells suspended in matrigel were sub-cutaneously injected into 6 week old athymic nude mice.
The treatment with the tested compounds, with the vehicle and with the comparative compound, was initiated after the tumor volume has reached 50 mm^3 after transplantation. All compounds were injected 100 μL/mouse of low dose solution (approximately 230 μM) or 100 μL/mouse of high dose solution (approximately 1150 μM) of cortexolone 17α-benzoate, vehicle and Cyproterone Acetate, respectively. Compounds and controls were administered subcutaneously daily for 28 days.
Tumors were measured every 4 days with a digital caliper.
The results are plotted in FIG. 1 as average change in tumor volume relative to the start of treatment. Tumor volume was calculated according to the formula 0.5236(r1)^2(r2) where r1<r2.
Error bars are the SEM for 7 to 10 mice per treatment group. P values were calculated according to the Student's t test.
Cortexolone 17α-valerate-21-propionate and Cyproterone Acetate were separately diluted in DMSO/2-hydroxypropyl β-cyclodextrin (vehicle).
The test was carried out comparing the anti-tumor activity of cortexolone 17α-valerate-21-propionate at two different dosages (approximately 8.6 mg/kg and 43 mg/kg) versus the vehicle (i.e. 0.4% (v/v) tween 80 and 0.5% (w/v) carboxymethylcellulose in normal saline) and versus the comparator Cyproterone Acetate at two different dosages (7.4 mg/kg and 37 mg/kg).
1×10^6 MiaPaca-2 cells suspended in matrigel were subcutaneously injected into 6 week old athymic nude mice.
The treatment with the tested compound, with the vehicle and with the comparative compound was initiated after the tumor has reached a volume of 50 mm^3 after implantation, injecting subcutaneously 100 μL/mouse of low dose solution (approximately 230 μM) or 100 μL/mouse of high dose solution (approximately 1150 μM) of cortexolone 17α-valerate-21-propionate, vehicle and Cyproterone Acetate, respectively. Compounds and controls were administered subcutaneously daily for 28 days. Tumors were measured every 4 days with a digital caliper.
The results are plotted in FIG. 2 as average change in tumor volume relative to the start of treatment. Tumor volume was calculated according to the formula 0.5236(r1)^2(r2) where r1<r2.
Cyproterone acetate (CPA), a well-known anti-androgen, was used as control. Briefly 1×10^6 MiaPaca2 cells suspended in matrigel were subcutaneously (sc) injected into 6 week old male athymic nude mice. Tumors were measured every 4 days with a digital caliper. Tumor volume was calculated according to the formula: 0.5236(r1)2(r2) where r1<r2. Treatment with CB-03-06 and control compounds were initiated after the tumor had reached 50 mm^3. Compounds diluted in DMSO/2-hydroxypropyl b-cyclodextrin (vehicle) were subcutaneously injected daily (100 microL/mouse) at the concentration of 40 mg/Kg daily for 28 consecutive days.

[6] = test system: 7 cancer cell lines; test: Therapeutic index over a panel of cancer cell lines; assay type: cell-based; conditions: average over the cancer cell lines of Table VII
Experimental: The compound toxicity was determined as follow:
Therapeutic Index=Safety/Potency=IC50 stimulated PBMC/IC50 cancer cell

[7] = test system: MiaPaca2; test: Cell cycle arrest, propidium iodide staining; assay type: cell-based; conditions: 24 hours, different concentrations
Experimental: Apoptosis can occur at the G1/S or G2/M transition of the cell cycle. Cells were treated with CB-03-10 for 24 hours then fixed with paraformaldehyde and stained with propidium iodide. […] The lack of G1 block indicates no effect on p53. The S & G2/M blocks may indicate activity on cell cycle check point molecules. For S phase, a possible target is the cyclin dependent kinase 2 (CDK2). Gemzar and cisplatin are example drugs that act in S phase. For G2, a possible target is CDK1.

[8] = In vitro metabolism in plasma; assay type: in vitro ADME, rat; conditions: 37 C
Experimental: To obtain some insight on the metabolism of CB-03-06 in human and rat plasma, a specific assay was designed. Briefly, the compound was incubated at different time points in human and rat plasma at 37 C. After incubation, the samples were tested for presence of the intact compound by liquid chromatography.

[9] = test system: LNCaP prostate cancer xenograft; test: Human prostate cancer xenograft in nude mice, oral dosing; assay type: in vivo; conditions: oral 100 mg/Kg daily 28 days
Experimental: 3×10^6 LNCaP cells suspended in matrigel were subcutaneously injected (on the right flank) into 6 week old male athymic nude mice. Tumors were measured as described above. Treatment with CB-03-06 and controls compounds was initiated after the tumor had reached 50 mm^3. […] Oral dosing was daily (100 mg/Kg in 200 microL/mouse) for 28 consecutive days. Results were plotted as average change in tumor volume relative to the start of treatment.

[10] = test system: LNCaP; test: Cell viability of the cells of the PSA assay; assay type: cell-based; conditions: Homo sapiens, 48 h, read-out: cell viability IC50
Experimental: Prostate-specific antigen, or PSA, is a protein produced by cells of the prostate gland. The PSA test measures the level of PSA in a person's blood. The blood level of PSA is often elevated in men with prostate cancer and it used as surrogate marker to test prostate cancer progression in human population. […] LNCaP cells were seeded in 96-well flat bottom culture plates in media containing charcoal stripped serum with or without 10 nM DHT. […] After 48 hours incubation with test compounds, supernatants were harvested and tested with an Elisa assay for PSA and the same cells were lysed for cell viability assessment.

SMILES: CCCCC(=O)O[C@]1(C(=O)COC(=O)CC)CC[C@H]2[C@@H]3CCC4=CC(=O)CC[C@]4(C)[C@H]3CC[C@@]21C [CB-03-10, cortexolone 17α-valerate-21-propionate]
- Therapeutic Index = IC50 resting PBMC/IC50 cancer cell ([1]; Table IV): 9
- Therapeutic Index = IC50 stimulated PBMC/IC50 cancer cell [1]: 9
- IC50 ([1]; Tables I and II, titrated 3 uM to 200 uM, 3 days): 10 µM
- IC50 ([1]; read-out: In vitro proliferation IC50, Table IV): 10 µM
- Therapeutic Index = IC50 resting PBMC/IC50 cancer cell ([2]; MiaPaca2, Table IV): 3
- Therapeutic Index = IC50 stimulated PBMC/IC50 cancer cell ([2]; MiaPaca2): 3
- IC50 ([2]; MiaPaca2, Tables I and II, titrated 3 uM to 200 uM, 3 days): 37 µM
- IC50 ([2]; read-out: In vitro proliferation IC50, MiaPaca2, Table IV): 37 µM
- Therapeutic Index = IC50 resting PBMC/IC50 cancer cell ([3]; PC3, Table IV): 2
- Therapeutic Index = IC50 stimulated PBMC/IC50 cancer cell ([3]; PC3): 2
- IC50 ([3]; PC3, Tables I and II, titrated 3 uM to 200 uM, 3 days): 53 µM
- IC50 ([3]; read-out: In vitro proliferation IC50, PC3, Table IV): 53 µM
- Therapeutic Index = IC50 resting PBMC/IC50 cancer cell ([4]; Panc1, Table IV): 2
- Therapeutic Index = IC50 stimulated PBMC/IC50 cancer cell ([4]; Panc1): 2
- IC50 ([4]; Panc1, Tables I and II, titrated 3 uM to 200 uM, 3 days): 60 µM
- IC50 ([4]; read-out: In vitro proliferation IC50, Panc1, Table IV): 60 µM
- pancreatic tumor size relative to the initial tumor size ([5]; Example 6, MiaPaca-2 xenograft, nude mice, SC daily 28 days, for the time of treatment): less than 5 fold
- in vivo antitumor activity compared with Cyproterone Acetate ([5]; MiaPaca-2 xenograft): antitumor activity higher than Cyproterone Acetate
- Therapeutic Index = IC50 stimulated PBMC/IC50 cancer cell, AVERAGE [6]: 4

SMILES: C[C@]12CCC(=O)C=C1CC[C@@H]1[C@@H]2CC[C@@]2(C)[C@H]1CC[C@]2(OC(=O)c1ccccc1)C(=O)CO [CB-03-06, cortexolone 17α-benzoate]
- IC50 ([1]; Homo sapiens, 72 h): 12 µM
- IC50 ([1]; Homo sapiens, read-out: In vitro proliferation IC50): 12 µM
- IC50 ([1]; Homo sapiens, read-out: in vitro proliferation IC50): 12 µM
- Therapeutic Index = IC50 resting PBMC/IC50 cancer cell ([1]; Table IV): 8
- Therapeutic Index = IC50 stimulated PBMC/IC50 cancer cell [1]: 8
- IC50 ([2]; Homo sapiens, MIA PaCa-2, 72 h): 20 µM
- IC50 ([2]; Homo sapiens, MIA PaCa-2, read-out: In vitro proliferation IC50): 20 µM
- IC50 ([2]; Homo sapiens, MIA PaCa-2, read-out: in vitro proliferation IC50): 20 µM
- Therapeutic Index = IC50 resting PBMC/IC50 cancer cell ([2]; MiaPaca2, Table IV): 5
- Therapeutic Index = IC50 stimulated PBMC/IC50 cancer cell ([2]; MiaPaca2): 5
- IC50 ([3]; Homo sapiens, PC-3, 72 h): 28 µM
- IC50 ([3]; Homo sapiens, PC-3, read-out: In vitro proliferation IC50): 28 µM
- IC50 ([3]; Homo sapiens, PC-3, read-out: in vitro proliferation IC50): 28 µM
- Therapeutic Index = IC50 resting PBMC/IC50 cancer cell ([3]; PC3, Table IV): 3
- Therapeutic Index = IC50 stimulated PBMC/IC50 cancer cell ([3]; PC3): 3
- IC50 ([4]; Homo sapiens, PANC-1, 72 h): 28 µM
- IC50 ([4]; Homo sapiens, PANC-1, read-out: In vitro proliferation IC50): 28 µM
- IC50 ([4]; Homo sapiens, PANC-1, read-out: in vitro proliferation IC50): 28 µM
- Therapeutic Index = IC50 resting PBMC/IC50 cancer cell ([4]; Panc1, Table IV): 3
- Therapeutic Index = IC50 stimulated PBMC/IC50 cancer cell ([4]; Panc1): 3
- cell cycle arrest [7]: induces an S phase block at lower concentrations then a G2/M block at higher concentration
- degradation in rat compared to human plasma [8]: degrades faster in rat compared to human plasma
- intact compound, % of initial concentration ([8]; rat plasma, through 8 hours): over 90%
- pancreatic tumor size relative to the size when treatment was initiated ([5]; Example 5, MiaPaca-2 xenograft, nude mice, SC daily 28 days, high dose of cortexolone 17α-benzoate (40 mg/kg)): less than 5 fold
- pancreatic tumor size relative to the initial size ([5]; Example 22, MiaPaca2 xenograft, male nude mice, 40 mg/Kg SC daily 28 days, treatment period): less than 5 fold
- Median survival ([5]; Example 22, MiaPaca2 xenograft, 40 mg/Kg SC daily 28 days): 70 days
- in vivo antitumor activity compared with Cyproterone Acetate ([5]; MiaPaca-2 xenograft): antitumor activity higher than Cyproterone Acetate
- anti-tumor activity, change in tumor volume [9]: strong anti-tumor activity against prostate cancer
- IC50 [10]: 12 µM
- Therapeutic Index = IC50 stimulated PBMC/IC50 cancer cell, AVERAGE [6]: 5
